Reference: patent US20220040212A1, “ORAL REHYDRATION COMPOSITION WITH OLIGOSACCHARIDES” (ABBOTT LABORATORIES, priority 2013, published 2022)
“And” between values parts separate entries of the source, which are not always exact repeats. Identical values can stand only once.

Tests used:
[1] = Stability of oligosaccharides in oral rehydration solution, before/after retort sterilization and 3 weeks after (HPAEC); format: physicochemical; details: for LNnT / Lactose / % Theoretical LNnT / 6′-SL / Sialic acid / % Theoretical 6′-SL: pH 3.5; for % Theoretical LNnT: fortification 0.256 g/L; for Further loss 3-weeks after sterilization, relative to sterilized sample (in words) / Loss of oligosaccharide during sterilization (in words): oral rehydration solution pH 3.5; for Loss of oligosaccharide during sterilization (in words): retort 217° F. 25 min; for % Theoretical 6′-SL: fortification 0.2 g/L
Method: A study was conducted to determine the relative stabilities of GOS, FOS, 2′-FL, 6′-SL, and LNnT in an oral rehydration solution. A master batch of product was prepared (shown in Table 1), the pH adjusted to approx. 4.25, and subsequently divided into five sub-batches.
Oligosaccharide ingredients were added to each of the sub-batches in amounts shown Table 2, and the pH of each sub-batch was subsequently adjusted to 3.5 with citric acid. The solutions were filled into 1 L plastic bottles, capped and retorted with a cook temperature of 217° F. for 25 minutes. Duplicate samples were collected immediately prior to sterilization and within 24 h after sterilization. Prior to sample analysis, the unsterile samples were stored at refrigerated temperature (˜40° F.) and the sterilized samples were held ambient temperature.
Samples were analyzed by HPAEC using a Dionex ICS3000 Ion Chromatography System (Thermo Scientific, Inc., Sunnyvale, Calif.) equipped with a pulsed amperometric detector comprised of a AgCl reference electrode, gold working electrode, and CarboPac PA1 guard (4×50 mm) and analytical columns (4×250 mm). Mobile phases were degassed and pressurized with 3 to 5 psi helium, and oligosaccharides eluted from the columns using various gradients detailed in Tables 3-5 at a flow rate of 1.0 mL/min. The column and detector were held at 20±2° C. Oligosaccharide identification and concentration were determined from quadratic fit (not forced through the origin) standard curves. […]
2′-FL fortification was calculated to be 0.2 g/L. Testing samples were reconstituted at 20 mL to 100 ml, with water, and then filtered using a 0.2 μm PES membrane syringe filter.
LNnT fortification was calculated to be 0.256 g/L. Testing samples were reconstituted at 20 mL to 100 ml, with water, and then filtered using a 0.2 μm PES membrane syringe filter.
6′-SL fortification was calculated to be 0.2 g/L. Testing samples were reconstituted at 20 mL to 100 mL with water, and then filtered using a 0.2 μm PES membrane syringe filter.

[2] = Stability of 2′-FL, LNnT and 6′-SL in an ORC over time (0 D to 14 weeks); format: physicochemical; details: for % Remaining * (LNnT) / % Remaining * (6′-SL): vs target fortification; for Change of oligosaccharide level over the course of the study (in words): 0 D to 14 weeks
Method: Another study was performed to determine the stability of 2′-FL, LNnT, and 6′-SL in an ORC over time (e.g., 1 week, 3 weeks, 6 weeks, and 14 weeks).
Sample Preparation: A master batch with a pH of 4.25 is sub-divided. The oligosaccharides are added to the respective ORC in an amount of 0.2 g/L for 2′-FL and 6′-SL, LNnT was fortified in an amount of 0.256 g/L. The pH was then adjusted from 4.25 to 3.5 by addition of citric acid. Prior to sterilization, samples are collected to evaluate oligosaccharide levels. The formulas were then delivered into 1 L bottles and subjected to heat sterilization and allowed to cool to room temperature.
The data on day 0 was collected in duplicate for samples prior to sterilization (unsterile) and after sterilization (sterile), thereafter the data was collected only on the sterilized samples. […] The slight fluctuation in lactose and lactulose levels are likely due to method variability.
The data on day 0 was collected in duplicate for samples prior to sterilization (unsterile) and after sterilization (sterile), thereafter the data was collected only on the sterilized samples.
The data on day 0 was collected in duplicate for samples prior to sterilization (unsterile) and after sterilization (sterile), thereafter the data was collected only on the sterilized samples. […] At 14 weeks, the concentration was 2.3% of the target fortification amount.

[3] = LNnT sample, 3-week after sterilization, average
[4] = LNnT sample, 3-week after sterilization, samples 1, 2
[5] = LNnT sample, sterile (after retort 217° F. 25 min), samples 1, 2
[6] = LNnT sample, sterile (after retort), average
[7] = LNnT sample, unsterile, average
[8] = LNnT sample, unsterile, samples 1, 2
[9] = LNnT ORC pH 3.5, 0 D, sterile, average
[10] = LNnT ORC pH 3.5, 0 D, sterile, samples 1, 2
[11] = LNnT ORC pH 3.5, 0 D, unsterile, average
[12] = LNnT ORC pH 3.5, 0 D, unsterile, samples 1, 2
[13] = LNnT ORC pH 3.5, 3 WK, sterile, average
[14] = LNnT ORC pH 3.5, 3 WK, sterile, samples 1, 2
[15] = LNnT ORC pH 3.5, 6 WK, sterile, average
[16] = LNnT ORC pH 3.5, 6 WK, sterile, samples 1, 2
[17] = LNnT ORC pH 3.5, 14 WK, sterile, average
[18] = LNnT ORC pH 3.5, 14 WK, sterile, samples 1, 2
[19] = 6′-SL sample, 3-week after sterilization, average
[20] = 6′-SL sample, 3-week after sterilization, samples 1, 2
[21] = 6′-SL sample, sterile (after retort 217° F. 25 min), samples 1, 2
[22] = 6′-SL sample, sterile (after retort), average
[23] = 6′-SL sample, unsterile, average
[24] = 6′-SL sample, unsterile, samples 1, 2
[25] = 6′-SL ORC pH 3.5, 0 D, sterile, average
[26] = 6′-SL ORC pH 3.5, 0 D, sterile, samples 1, 2
[27] = 6′-SL ORC pH 3.5, 0 D, unsterile, average
[28] = 6′-SL ORC pH 3.5, 0 D, unsterile, samples 1, 2
[29] = 6′-SL ORC pH 3.5, 3 WK, sterile, average
[30] = 6′-SL ORC pH 3.5, 3 WK, sterile, samples 1, 2
[31] = 6′-SL ORC pH 3.5, 6 WK, sterile, average
[32] = 6′-SL ORC pH 3.5, 6 WK, sterile, samples 1, 2
[33] = 6′-SL ORC pH 3.5, 14 WK, sterile, average
[34] = 6′-SL ORC pH 3.5, 14 WK, sterile, samples 1, 2

## CC(=O)N[C@H]1[C@H](O[C@H]2[C@@H](O)[C@@H](CO)O[C@@H](O[C@H]3[C@H](O)[C@@H](O)C(O)O[C@@H]3CO)[C@@H]2O)O[C@H](CO)[C@@H](O[C@@H]2O[C@H](CO)[C@H](O)[C@H](O)[C@H]2O)[C@@H]1O (mixture of isomers) [LNnT, lacto-N-neotetraose]
[1]
  Stability in the exemplary formulations (in words): enhanced stability
  Further loss 3-weeks after sterilization, relative to sterilized sample (in words): no further loss
  Loss of oligosaccharide during sterilization (in words): no decrease
[1]; [3]
  LNnT: 269 mg/L
  Lactose: 28.1 mg/L
  % Theoretical LNnT: 105%
[1]; [4]
  LNnT: 266.5 mg/L and 271.0 mg/L
  Lactose: 28.03 mg/L and 28.19 mg/L
  % Theoretical LNnT: 104.2% and 106%
[1]; [5]
  LNnT: 261 mg/L and 261.1 mg/L
  Lactose: 26.34 mg/L and 27.26 mg/L
[1]; [6]
  LNnT: 261 mg/L
  Lactose: 26.8 mg/L
  % Theoretical LNnT: 102%
[1]; LNnT sample, sterile (after retort), samples 1, 2
  % Theoretical LNnT: 102.1%
[1]; [7]
  LNnT: 258 mg/L
  Lactose: 25.6 mg/L
  % Theoretical LNnT: 101%
[1]; [8]
  LNnT: 257.6 mg/L and 259.4 mg/L
  Lactose: 25.78 mg/L and 25.46 mg/L
  % Theoretical LNnT: 100.7% and 101.4%
[2]; [9]
  LNnT: 261 mg/L
  Lactose: 26.8 mg/L
  % Remaining * (LNnT): 102%
[2]; [10]
  LNnT: 261 mg/L and 261.1 mg/L
  Lactose: 26.34 mg/L and 27.26 mg/L
  % Remaining * (LNnT): 102.1%
[2]; [11]
  LNnT: 258 mg/L
  Lactose: 25.6 mg/L
  % Remaining * (LNnT): 101%
[2]; [12]
  LNnT: 257.6 mg/L and 259.4 mg/L
  Lactose: 25.78 mg/L and 25.46 mg/L
  % Remaining * (LNnT): 100.7% and 101.4%
[2]; [13]
  % Remaining ** (LNnT): 105%
  LNnT: 269 mg/L
  Lactose: 28.10 mg/L
[2]; [14]
  % Remaining ** (LNnT): 104.2% and 106%
  LNnT: 266.5 mg/L and 271.0 mg/L
  Lactose: 28.03 mg/L and 28.19 mg/L
[2]; [15]
  % Remaining ** (LNnT): 104%
  LNnT: 267 mg/L
  Lactose: 29.7 mg/L
[2]; [16]
  % Remaining ** (LNnT): 103.9% and 104.9%
  LNnT: 265.8 mg/L and 268.4 mg/L
  Lactose: 30.89 mg/L and 28.6 mg/L
[2]; [17]
  % Remaining ** (LNnT): 105%
  LNnT: 269 mg/L
  Lactose: 28 mg/L
[2]; [18]
  % Remaining ** (LNnT): 106.6% and 103.4%
  LNnT: 272.7 mg/L and 264.3 mg/L
  Lactose: 27.94 mg/L and 28.14 mg/L
[2]; ORC pH 3.5, heat sterilized
  Change of oligosaccharide level over the course of the study (in words): No substantial loss

## CC(=O)N[C@H]1[C@H]([C@H](O)[C@H](O)CO)O[C@@](OC[C@H]2O[C@@H](O[C@H]3[C@H](O)[C@@H](O)[C@H](O)O[C@@H]3CO)[C@H](O)[C@@H](O)[C@H]2O)(C(=O)O)C[C@@H]1O [6′-SL, 6′-sialyllactose]
[1]; [19]
  6′-SL: 10.5 mg/L
  Lactose: 153 mg/L
  Sialic acid: 82.9 mg/L
  % Theoretical 6′-SL: 5.27%
[1]; [20]
  6′-SL: 10.5 mg/L and 10.6 mg/L
  Lactose: 152.2 mg/L and 154 mg/L
  Sialic acid: 82.89 mg/L and 82.96 mg/L
  % Theoretical 6′-SL: 5.249% and 5.3%
[1]; [21]
  6′-SL: 10.39 mg/L and 11.0 mg/L
  Lactose: 149.4 mg/L
  Sialic acid: 83.46 mg/L and 83.79 mg/L
[1]; [22]
  6′-SL: 10.7 mg/L
  Lactose: 149 mg/L
  Sialic acid: 83.6 mg/L
[1]; [23]
  6′-SL: 173 mg/L
  Lactose: 24.6 mg/L
  Sialic acid: 4.95 mg/L
[1]; [24]
  6′-SL: 170.8 mg/L and 174.5 mg/L
  Lactose: 24.22 mg/L and 24.90 mg/L
  Sialic acid: 5.055 mg/L and 4.842 mg/L
[1]
  Further loss 3-weeks after sterilization, relative to sterilized sample (in words): No additional loss
  Loss of oligosaccharide during sterilization (in words): Significant loss
[2]; [25]
  6′-SL: 10.7 mg/L
  Lactose: 149 mg/L
  Sialic acid: 83.6 mg/L
  % Remaining * (6′-SL): 5.35%
[2]; [26]
  6′-SL: 10.39 mg/L and 11 mg/L
  Lactose: 149.4 mg/L
  Sialic acid: 83.46 mg/L and 83.79 mg/L
  % Remaining * (6′-SL): 5.195% and 5.502%
[2]; [27]
  6′-SL: 173 mg/L
  Lactose: 24.6 mg/L
  Sialic acid: 4.95 mg/L
  % Remaining * (6′-SL): 86.3%
[2]; [28]
  6′-SL: 170.8 mg/L and 174.5 mg/L
  Lactose: 24.22 mg/L and 24.9 mg/L
  Sialic acid: 5.055 mg/L and 4.842 mg/L
  % Remaining * (6′-SL): 85.42% and 87.24%
[2]; [29]
  6′-SL: 10.5 mg/L
  % Remaining ** (6′-SL): 5.27%
  Lactose: 153 mg/L
  Sialic acid: 82.9 mg/L
[2]; [30]
  6′-SL: 10.5 mg/L and 10.6 mg/L
  % Remaining ** (6′-SL): 5.249% and 5.3%
  Lactose: 152.2 mg/L and 154.0 mg/L
  Sialic acid: 82.89 mg/L and 82.96 mg/L
[2]; [31]
  6′-SL: 10.5 mg/L
  % Remaining ** (6′-SL): 5.26%
  Lactose: 172 mg/L
  Sialic acid: 98 mg/L
[2]; [32]
  6′-SL: 10.47 mg/L and 10.59 mg/L
  % Remaining ** (6′-SL): 5.234% and 5.295%
  Lactose: 170.5 mg/L and 174.4 mg/L
  Sialic acid: 98.77 mg/L and 97.2 mg/L
[2]; [33]
  6′-SL: 4.6 mg/L
  % Remaining ** (6′-SL): 2.31%
  Lactose: 152 mg/L
  Sialic acid: 91.7 mg/L
[2]; [34]
  6′-SL: 4.66 mg/L and 4.57 mg/L
  % Remaining ** (6′-SL): 2.330% and 2.285%
  Lactose: 149.5 mg/L and 155.1 mg/L
  Sialic acid: 91.10 mg/L and 92.22 mg/L
[2]; 6′-SL ORC pH 3.5, at 14 weeks
  Concentration as % of the target fortification amount: 2.3%
[2]; ORC pH 3.5, heat sterilized
  Discoloration relative to the other test compositions: Slight discoloration
  Change of oligosaccharide level over the course of the study (in words): significant decrease
